{
  "source": "ChEMBL document CHEMBL5236554",
  "about": "(J Med Chem, 2021)",
  "key": {"[1]": {"molecular_target": "Angiotensin-converting enzyme 2 (Homo sapiens) (UniProt Q9BYF1)", "sequence (Q9BYF1 18-805 limits assumed)": "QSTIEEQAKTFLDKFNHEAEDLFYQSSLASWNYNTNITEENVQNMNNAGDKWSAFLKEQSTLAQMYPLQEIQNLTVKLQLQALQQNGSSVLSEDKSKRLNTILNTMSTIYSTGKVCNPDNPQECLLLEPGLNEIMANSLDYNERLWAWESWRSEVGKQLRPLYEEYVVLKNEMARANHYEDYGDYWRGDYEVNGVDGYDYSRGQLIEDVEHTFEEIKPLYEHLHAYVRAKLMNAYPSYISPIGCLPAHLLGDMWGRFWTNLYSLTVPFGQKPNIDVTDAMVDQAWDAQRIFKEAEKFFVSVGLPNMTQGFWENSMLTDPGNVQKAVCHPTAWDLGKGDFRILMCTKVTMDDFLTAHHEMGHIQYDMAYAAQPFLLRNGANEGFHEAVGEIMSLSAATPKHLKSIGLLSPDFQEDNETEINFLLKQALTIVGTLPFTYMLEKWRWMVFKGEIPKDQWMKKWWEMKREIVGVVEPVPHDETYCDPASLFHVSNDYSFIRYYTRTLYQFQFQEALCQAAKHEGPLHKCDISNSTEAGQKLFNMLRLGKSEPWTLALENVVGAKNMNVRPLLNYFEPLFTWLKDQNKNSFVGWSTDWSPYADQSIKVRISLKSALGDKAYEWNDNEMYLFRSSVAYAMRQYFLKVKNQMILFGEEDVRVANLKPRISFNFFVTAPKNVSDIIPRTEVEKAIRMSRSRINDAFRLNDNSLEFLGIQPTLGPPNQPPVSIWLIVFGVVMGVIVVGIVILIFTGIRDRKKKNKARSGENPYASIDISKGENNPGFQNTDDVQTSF", "assay": "Inhibition of recombinant human ACE2 catalytic activity at 300 uM using Mca-Ala-Pro-Lys-(Dnp)-OH as substrate"}, "[2]": {"assay": "Metabolic stability in mouse brain homogenate assessed as half life measured upto 240 mins by LC-MS/MS analysis", "assay_type": "ADME, tissue-based", "details": "4 h"}, "[3]": {"assay": "Permeability coefficient across apical to basolateral side in mouse BEND3 cells co-cultured with mouse primary astrocytes incubated for 120 mins by LC-MS/MS analysis", "assay_type": "ADME, cell-based", "details": "bend3, 2 h"}, "[4]": {"molecular_target": "Thimet oligopeptidase (Homo sapiens) (UniProt P52888)", "sequence (P52888 whole entry)": "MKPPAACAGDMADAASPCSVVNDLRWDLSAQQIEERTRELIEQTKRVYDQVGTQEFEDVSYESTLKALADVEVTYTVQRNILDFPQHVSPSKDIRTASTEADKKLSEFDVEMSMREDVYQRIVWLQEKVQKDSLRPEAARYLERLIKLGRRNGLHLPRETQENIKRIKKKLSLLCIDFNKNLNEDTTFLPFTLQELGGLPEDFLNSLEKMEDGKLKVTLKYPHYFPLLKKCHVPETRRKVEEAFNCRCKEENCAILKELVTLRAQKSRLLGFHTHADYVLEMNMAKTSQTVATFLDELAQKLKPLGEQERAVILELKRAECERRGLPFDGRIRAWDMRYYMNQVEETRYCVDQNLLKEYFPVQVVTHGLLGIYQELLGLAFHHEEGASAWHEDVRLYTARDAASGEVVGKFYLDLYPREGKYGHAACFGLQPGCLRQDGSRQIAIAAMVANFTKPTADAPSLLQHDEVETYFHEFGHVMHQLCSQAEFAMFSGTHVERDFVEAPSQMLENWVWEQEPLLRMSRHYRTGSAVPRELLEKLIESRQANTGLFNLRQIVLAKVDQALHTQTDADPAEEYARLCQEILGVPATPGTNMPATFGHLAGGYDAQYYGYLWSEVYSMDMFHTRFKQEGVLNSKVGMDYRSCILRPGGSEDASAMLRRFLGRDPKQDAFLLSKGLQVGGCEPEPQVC", "assay": "Inhibition of recombinant human THOP catalytic activity using Mca-Pro-Leu-Gly-Pro-D-Lys(DNP)-OH as substrate"}, "[5]": {"assay": "Metabolic stability in mouse plasma assessed as half life measured upto 240 mins by LC-MS/MS analysis", "assay_type": "ADME, cell-free"}, "[6]": {"molecular_target": "Angiotensin-converting enzyme (Homo sapiens) (UniProt P12821)", "sequence (P12821 whole entry)": "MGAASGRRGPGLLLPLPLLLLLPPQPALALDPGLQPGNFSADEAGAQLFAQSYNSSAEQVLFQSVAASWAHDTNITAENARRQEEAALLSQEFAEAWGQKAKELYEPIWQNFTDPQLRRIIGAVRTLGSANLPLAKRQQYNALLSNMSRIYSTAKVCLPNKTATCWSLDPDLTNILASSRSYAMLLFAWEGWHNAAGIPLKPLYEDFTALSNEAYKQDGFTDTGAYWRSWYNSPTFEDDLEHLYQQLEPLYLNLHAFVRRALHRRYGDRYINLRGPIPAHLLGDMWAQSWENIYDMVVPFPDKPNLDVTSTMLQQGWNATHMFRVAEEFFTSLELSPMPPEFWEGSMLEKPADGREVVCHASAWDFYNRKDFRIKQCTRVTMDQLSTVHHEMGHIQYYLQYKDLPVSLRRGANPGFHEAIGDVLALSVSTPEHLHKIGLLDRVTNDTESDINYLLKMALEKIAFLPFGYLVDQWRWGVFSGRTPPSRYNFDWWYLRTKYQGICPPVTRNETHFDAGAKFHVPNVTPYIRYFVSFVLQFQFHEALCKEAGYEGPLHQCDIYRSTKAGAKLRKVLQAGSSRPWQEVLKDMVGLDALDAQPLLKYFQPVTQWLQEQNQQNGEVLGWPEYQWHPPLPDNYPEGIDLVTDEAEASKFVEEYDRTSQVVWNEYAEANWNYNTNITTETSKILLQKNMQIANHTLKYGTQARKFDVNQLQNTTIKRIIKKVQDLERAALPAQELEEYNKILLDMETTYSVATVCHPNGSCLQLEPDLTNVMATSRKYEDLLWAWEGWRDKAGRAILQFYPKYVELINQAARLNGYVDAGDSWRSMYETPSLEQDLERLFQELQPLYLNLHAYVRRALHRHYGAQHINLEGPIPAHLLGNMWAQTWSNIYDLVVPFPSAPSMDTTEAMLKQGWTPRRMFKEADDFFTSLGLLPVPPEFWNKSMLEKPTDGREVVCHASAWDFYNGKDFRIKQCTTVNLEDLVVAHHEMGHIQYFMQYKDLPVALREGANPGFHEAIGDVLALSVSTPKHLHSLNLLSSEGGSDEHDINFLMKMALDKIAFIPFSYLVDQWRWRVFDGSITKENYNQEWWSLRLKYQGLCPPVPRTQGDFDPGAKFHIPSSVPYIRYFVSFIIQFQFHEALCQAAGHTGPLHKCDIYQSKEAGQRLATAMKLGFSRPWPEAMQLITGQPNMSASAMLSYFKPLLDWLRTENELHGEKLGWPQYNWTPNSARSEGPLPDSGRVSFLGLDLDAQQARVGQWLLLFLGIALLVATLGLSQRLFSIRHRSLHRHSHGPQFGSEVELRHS", "assay": "Inhibition of recombinant human ACE catalytic activity measured up to 150 uM"}, "[7]": {"molecular_target": "Neprilysin (Homo sapiens) (UniProt P08473)", "sequence (P08473 whole entry)": "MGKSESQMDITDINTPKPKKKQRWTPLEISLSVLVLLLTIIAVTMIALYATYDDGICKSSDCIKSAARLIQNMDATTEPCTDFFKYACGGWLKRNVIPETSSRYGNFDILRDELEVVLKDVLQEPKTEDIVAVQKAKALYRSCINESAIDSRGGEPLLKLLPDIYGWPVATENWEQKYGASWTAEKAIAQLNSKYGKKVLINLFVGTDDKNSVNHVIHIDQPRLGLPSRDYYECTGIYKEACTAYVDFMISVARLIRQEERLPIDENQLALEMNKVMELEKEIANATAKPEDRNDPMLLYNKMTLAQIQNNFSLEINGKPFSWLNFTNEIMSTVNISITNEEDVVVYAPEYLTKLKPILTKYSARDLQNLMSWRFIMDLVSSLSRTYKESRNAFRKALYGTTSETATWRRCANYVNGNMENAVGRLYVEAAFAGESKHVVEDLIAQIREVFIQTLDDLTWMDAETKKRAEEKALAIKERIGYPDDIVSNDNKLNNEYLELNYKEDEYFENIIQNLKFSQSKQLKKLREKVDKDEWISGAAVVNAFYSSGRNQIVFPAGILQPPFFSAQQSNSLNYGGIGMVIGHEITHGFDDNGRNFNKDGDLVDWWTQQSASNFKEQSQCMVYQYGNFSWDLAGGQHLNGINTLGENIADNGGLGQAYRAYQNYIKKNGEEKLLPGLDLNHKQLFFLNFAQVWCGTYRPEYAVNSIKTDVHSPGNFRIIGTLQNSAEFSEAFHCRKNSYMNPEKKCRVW", "assay": "Inhibition of recombinant human NEP catalytic activity using Mca-Arg-Pro-Pro-Gly-Phe-Ser-Ala-Phe-Lys(Dnp)-OH as substrate"}, "[8]": {"molecular_target": "Neurolysin, mitochondrial (Rattus norvegicus, UniProt P42676)", "sequence (P42676 whole entry)": "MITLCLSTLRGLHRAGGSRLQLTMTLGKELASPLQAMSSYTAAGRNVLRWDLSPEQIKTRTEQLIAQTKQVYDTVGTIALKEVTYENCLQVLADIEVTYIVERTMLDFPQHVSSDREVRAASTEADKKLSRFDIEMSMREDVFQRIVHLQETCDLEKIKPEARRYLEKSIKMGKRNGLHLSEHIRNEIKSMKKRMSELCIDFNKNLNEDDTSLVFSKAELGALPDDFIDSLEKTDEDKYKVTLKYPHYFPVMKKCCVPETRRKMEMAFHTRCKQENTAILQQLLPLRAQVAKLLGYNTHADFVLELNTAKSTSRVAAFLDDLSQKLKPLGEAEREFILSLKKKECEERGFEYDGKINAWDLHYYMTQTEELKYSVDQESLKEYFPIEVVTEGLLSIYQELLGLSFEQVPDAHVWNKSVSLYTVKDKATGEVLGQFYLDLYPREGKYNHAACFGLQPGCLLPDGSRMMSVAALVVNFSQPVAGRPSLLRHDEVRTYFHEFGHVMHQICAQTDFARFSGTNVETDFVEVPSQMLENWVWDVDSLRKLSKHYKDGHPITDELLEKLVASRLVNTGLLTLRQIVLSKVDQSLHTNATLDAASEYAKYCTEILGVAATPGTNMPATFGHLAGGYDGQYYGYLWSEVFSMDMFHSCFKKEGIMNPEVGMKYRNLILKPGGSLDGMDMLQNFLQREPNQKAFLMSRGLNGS", "assay": "Activation of recombinant rat Neurolysin using QFS as substrate incubated for 10 mins"}},
  "note": "Calls of active or inactive are those of the source. The rule behind the calls is not given here. Square brackets hold non-standard residues; d marks the D form. Peptide text beside a SMILES is read from it. * marks the point of attachment. Boc = CC(C)(C)OC(=O)*",
  "data": [
    {"smiles": "N[C@@H](Cc1c[nH]cn1)C(=O)NCc1cccc2ccccc12", "values": [
      {"measurement": "inhibition", "setting": "[1]", "result": "inactive"},
      {"measurement": "t1/2", "setting": "[2]", "result": 80.3, "unit": "min"},
      {"measurement": "Kp", "setting": "[3]", "result": "1.09 10^-3cm/min"},
      {"measurement": "inhibition", "setting": "[4]", "result": "inactive"},
      {"measurement": "half-life", "setting": "[5]", "result": "> 1000", "unit": "min"},
      {"measurement": "inhibition", "setting": "[6]", "result": "inactive"},
      {"measurement": "inhibition", "setting": "[7]", "result": "inactive"}
    ]},
    {"smiles": "N[C@@H](Cc1c[nH]cn1)C(=O)N[C@@H](Cc1ccccc1)C(=O)O", "note": "(H-His-Phe-OH)", "values": [
      {"measurement": "EC50", "setting": "[8]; read-out: EC50", "result": 74.5, "unit": "µM"}
    ]},
    {"smiles": "NC(Cc1c[nH]cn1)C(=O)NCc1cccc2cccnc12", "note": "(racemic)", "values": [
      {"measurement": "EC50", "setting": "[8]; read-out: EC50", "result": 5.8, "unit": "µM"}
    ]},
    {"smiles": "N[C@@H](Cc1ccc(O)cc1)C(=O)N[C@H](Cc1c[nH]cn1)C(=O)O", "values": [
      {"measurement": "EC50", "setting": "[8]", "result": "Not Active"}
    ]},
    {"smiles": "CC(C)(C)OC(=O)N[C@@H](Cc1c[nH]cn1)C(=O)NCCc1c[nH]c2ccccc12", "values": [
      {"measurement": "EC50", "setting": "[8]", "result": "Not Active"}
    ]},
    {"smiles": "N[C@@H](Cc1c[nH]cn1)C(=O)N[C@@H](Cc1ccc(O)cc1)C(=O)O", "note": "(H-His-Tyr-OH)", "values": [
      {"measurement": "t1/2", "setting": "[2]", "result": 1.03, "unit": "min"},
      {"measurement": "Kp", "setting": "[3]", "result": "0.21 10^-3cm/min"},
      {"measurement": "t1/2", "setting": "[5]; 4 h", "result": 34.19, "unit": "min"}
    ]},
    {"smiles": "O=C(CCc1c[nH]cn1)NCCc1cc2ccccc2[nH]1", "values": [
      {"measurement": "EC50", "setting": "[8]", "result": "Not Active"}
    ]},
    {"smiles": "CC(C)(C)OC(=O)N[C@@H](Cc1ccc(O)cc1)C(=O)N[C@H](Cc1ccccc1)C(=O)O", "note": "(Boc-Tyr-[dF]-OH)", "values": [
      {"measurement": "EC50", "setting": "[8]", "result": "Not Active"}
    ]},
    {"smiles": "N[C@@H](Cc1c[nH]cn1)C(=O)NCCc1ccc(F)cc1", "values": [
      {"measurement": "EC50", "setting": "[8]; read-out: EC50", "result": 11.6, "unit": "µM"}
    ]}
  ]
}
